Results reported in patent US20020006915A1, “Use of COX-2 inhibitors to treat sepsis, complications thereof, and EP receptor modulation” (priority 2000, published 2002).
Entries after “also recorded” stand apart in the source; their conditions may differ. Marks after values point to notes of the source that are not given here.

What was measured:
[1] = test system: LPS stimulated splenic macrophages; test: Mediator production (PGE2, IL-6, TNF-α, NO) by stimulated splenic macrophages 7 days after injury, 3 in vivo doses of NS-398 within 24 h; set-up: species or system BALB/c mice
Procedure: Vehicle mice were injected with a 4% DMSO solution.
Spleens were collected aseptically and placed in separate petri dishes containing cold (4° C.) Hanks Balanced Salt Solution without calcium and magnesium (Gibco BRL, Life Technologies Inc, Grand Island, N.Y.). Splenocytes were isolated by gentle mechanical disruption of the spleen with filtration through a nylon mesh (Spectrum, Laguna Hills, Calif.). The suspension was centrifuged for 7 minutes, at 500 g and 4° C. After resuspension, erythrocytes were lysed with an ammonium chloride solution for 4 minutes and the lysate was centrifuged as previously described. The remaining pellet was resuspended in complete RPMI-1640 (Gibco BRL, Life Technologies Inc), containing 1% antibiotic/antimycotic solution and 10% heat-inactivated fetal bovine serum (Gibco BRL, Life Technologies Inc), counted and diluted to a final cell concentration of 5×10^6 cells/ml and plated. After allowing macrophages to adhere for 2 hours, the remaining cells were suctioned off and macrophages were incubated with 10 ng/ml LPS 055:B5 (Sigma, St. Louis, Mo.) for PGE2, IL-6 and TNFα determination, or (10 ng/ml LPS+100 U/ml recombinant mouse IFN-γ (Pharmingen, San Diego, Calif.) for NO2^− determination. Cells were incubated at 37° C. in a 5% CO2 atmosphere, and supernatants harvested at 24 hours and frozen at −70° C. for determination of prostaglandin, cytokine and NO production.
NO2^− was measured indirectly by determination of NO2^− concentration using the Greiss reagent system (Promega, Madison, Wis.). The BCA protein assay (Pierce, Rockford, Ill.) was used to quantify protein and all measurements were normalized to protein content per well.
Balb/c mice (n=8/group) were given 3 intraperitoneal injections of 10 mg/kg NS398; immediately following injury, at 12 and 24 hours after sham injury or trauma (femur fracture and 40% blood volume hemorrhage). Sham+placebo (C); sham+NS398 (CN); trauma+placebo (T); or trauma+NS398 (TN) groups were studied. On day 7 after injury, mice were sacrificed and splenic macrophages evaluated for cytokine production and expression of COX-2 mRNA. In a separate study, mice (n=10-12/group) were treated in an identical fashion. After 7 days, cecal ligation and puncture was performed and animals followed for survival.

COX-2 = assay type: cell-based, human
Procedure: Isolated PBMC's from various groups were incubated for 18 hours at which time all groups were treated with 10 ng/mL lipopolysaccharaide (LPS) 055:B5 (Sigma, St. Louis, Mo.) for 6 hours RT-PCR samples were run in a blinded fashion. Extraction of mRNA was with an RNA extraction kit (Qiagen). Total mRNA (1 μg) was reverse transcribed in an RT mastermix (50 mM KCl, 10 mM tris-HCl, 5 mM MgCl2, 1 mM dNTP, 2.5 mM oligo d(T), 50 units of RT, 20 units of RNAse inhibitor, and nuclease free water; all reagents from Perkin-Elmer, Foster City, Calif.) with an initial 10 minute incubation at room temperature and then 42° C. for 10 minutes. […] The cDNA was run on a 1% agarose gel with 3 μL of ethidium bromide (10 mg/mL solution) and bands were visualized under UV transillumination and recorded in an image acquisition processing and analysis program (Eagle Eye 2, Stratagene).
NS-398 (N-[2-(cyclohexyloxy)-4-nitrophenyl]-methanesulfonamide) was obtained from Cayman Chemical (Ann Arbor, Mich.) and prepared in DMSO at a concentration of 1 mM. Serial dilutions were made to co-culture cells with a final concentration of 10 mM NS-398 in a 0.1% DMSO. […]
To further evaluate the expression of COX-2, samples of LPS stimulated PBMC's were evaluated from control and injured subjects as well as samples co-incubated with 10 μM NS-398.

COX-2 mRNA = COX-2 mRNA in splenic macrophages by RT-PCR (NS-398 over 7 days); assay type: in vivo, BALB/c mice; conditions: trauma + NS-398 over 7 days
Procedure: Isolated splenic macrophages were treated with LPS (10 ng/mL) for 6 hours. Extraction of mRNA was done with an RNA extraction kit (Qiagen, Inc.).

EP4 receptor = EP4 receptor expression in LPS stimulated human PBMC's via RT-PCR; assay type: cell-based; conditions: PBMC's after injury, co-incubation with NS-398
Procedure: Serial dilutions were made to co-culture cells with a final concentration of […] NS-398 in a 0.1% DMSO. Control and trauma groups were co-cultured with 0.1% DMSO vehicle for comparisons with NS-398 treated groups.

[2] = test system: BALB/c mice subjected to cecal ligation and puncture; test: Survival after cecal ligation and puncture 7 days after trauma, NS-398 twice a day over 7 days; assay type: in vivo
Excerpt: All cytokine results are reported as mean±SEM of 8 mice per group. The ANOVA was used to determine the significance of the differences between means of traumatized±treatment versus control±treatment groups. A P value of <0.05 was considered significant. For survival studies, Kaplan-Meier (Log-rank) statistical analysis was used to compare all four groups studied. A P value of <0.05 was considered significant.
To evaluate the biological relevance of NS-398, mice were randomized into the four treatment groups. After 7 days, all mice were subjected to cecal ligation and puncture (CLP) and followed for survival over 10 days, when remaining mice were euthanized. […] Only 9% of control mice survived after 200 hours compared to a significant increase in survival of trauma+NS-398 treated mice in which 45% survived.
BALB/C mice (n=8/group) were given 10mg/kg NS398 intraperitoneally BID for 7 days, starting immediately after sham injury or trauma (femur fracture+40% hemorrhage). Four groups, sham+placebo (C); sham+NS398 (CN); trauma+placebo (T); or trauma+NS398 (TN) were studied. On day 7 after trauma, mice were sacrificed and splenic macrophages evaluated for PGE2, TNF-α and NO production (via Student's t-test). In a separate study, mice (n=10-11/group) were traumatized and given NS398 for 7 days. On day 7, cecal ligation and puncture was performed, and mice evaluated for survival over 3 weeks (via Log-rank test).

IκB-α = test: Western blot of cytosolic IκB-α in splenic macrophages; assay type: in vivo, BALB/c mice; conditions: NS-398 treatment after trauma, over 7 days
Procedure: Cytoplasmic fractions were collected after splenic macrophages were stimulated (as described above) and then boiled in equal volumes of loading buffer (125 mM Tris-HCl, pH 6.8, 4% sodium dodecyl sulfate, 20% glycerol and 10% 2-mercaptoethanol) for 3 minutes and were then separated by electrophoresis on a tris-glycine gradient gel. The proteins were then transferred to nitrocellulose membranes (Xcell II Blot Module; Novex). The membranes were blocked with 10% non-fat dried milk in Tris-buffered saline (TBS), pH 7.6, containing 0.05% tween-20 (TTBS) for 1 hour and then incubated with a polyclonal rabbit anti-mouse antibody to IκB-α (Santa Cruz Laboratories) for 45 minutes. After washing twice in TTMS, the blots were incubated with a peroxidase-conjugated goat anti-rabbit IgG secondary antibody for 15 minutes. The blots were washed in TTBS for 5 minutes three times, then in TBS for 5 minutes, incubated in enhanced chemiluminescence reagents (ECL, Amersham Life Sciences, Buckingham, England) and exposed on radiographic film (Kodak, Rochester, N.Y.).

[3] = T + NS, 3 i.p. injections of 10 mg/kg, splenic macrophages day 7

SMILES: CS(=O)(=O)Nc1ccc([N+](=O)[O-])cc1OC1CCCCC1 [NS-398, N-(2-cyclohexyloxy-4-nitrophenyl)methanesulfonamide]
- IL-6 [1, 3]: 5.4 ± 0.9 pg/μg protein
- NO [1, 3]: 8 ± 4 nmol/μgprot
- TNF-α [1, 3]: 2.0 ± 0.5
- PGE2 ([1]; T + NS, 3 i.p. injections of 10 mg/kg, splenic macrophages day 7, n=8): 71 ± 14
- PGE2 production from LPS stimulated splenic macrophages ([1]; control mice treated with NS-398 (CN), 7 days): 87 ± 10 pg/µg protein
- IL-6 level, splenic macrophages ([1]; injured mice + NS-398, 7 days): 5.4 ± 0.3 pg/µg
- nitrite levels, LPS+IFN-γ stimulated splenic macrophages ([1]; injured mice + NS-398, 7 days): 0.007 ± 0.004 nmol/µg
- TNF-α production, splenic macrophages ([1]; trauma + NS-398 (TN), 7 days following trauma): 2.0 ± 0.2 pg/µL
- PGE2 production from LPS stimulated splenic macrophages ([1]; trauma+NS-398 mice, 7 days following injury, treatment for 24 hours post-injury, ±SEM): 71 ± 5 pg/µg
- COX-2 expression (COX-2): reduced COX-2 expression to levels similar to that expressed by control cells
- COX-2 mRNA levels (COX-2 mRNA): decreased this induction
- EP4 receptor expression (EP4 receptor): reversed; also recorded: restored
- survival ([2]; C + NS398, 10 mg/kg i.p. BID for 7 days, CLP on day 7): 0%
- survival ([2]; T + NS398, 10 mg/kg i.p. BID for 7 days, CLP on day 7): 45%*
- survival (in words) ([2]; control+NS-398 mice after CLP): died shortly after CLP
- survival ([2]; trauma+NS-398 treated mice, after 200 hours after CLP): 45%
- cytosolic IκB (IκB-α): an increase in cytosolic IκB
